One test has as its target T1, CCK2 receptor (Homo sapiens, UniProt P32239).
T1 construct: analyzed for ZFP expression as well as CCK2R induction upon addition of doxycycline to the culture medium; endogenous in cells
T1 sequence (P32239 1-447): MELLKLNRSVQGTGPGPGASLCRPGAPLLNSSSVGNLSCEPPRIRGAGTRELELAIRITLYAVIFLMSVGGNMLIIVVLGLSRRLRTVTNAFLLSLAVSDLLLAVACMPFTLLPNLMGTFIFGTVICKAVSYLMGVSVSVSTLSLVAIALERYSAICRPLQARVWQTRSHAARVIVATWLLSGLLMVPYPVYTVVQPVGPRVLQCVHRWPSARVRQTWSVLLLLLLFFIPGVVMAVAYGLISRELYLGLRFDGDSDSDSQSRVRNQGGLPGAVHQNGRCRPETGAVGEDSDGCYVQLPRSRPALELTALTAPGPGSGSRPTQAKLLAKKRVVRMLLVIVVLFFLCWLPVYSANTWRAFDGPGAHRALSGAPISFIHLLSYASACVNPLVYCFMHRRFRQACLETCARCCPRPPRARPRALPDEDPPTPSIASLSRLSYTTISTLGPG
As to the kind of experiment: CCK2 binding assay ([125I]-BH-CCK-8S displacement, HEKZFP membranes). As to conditions: membranes of doxycycline-induced HEKZFP cells, 20 pM [125I]-BH-CCK-8S, 60 min at 21±3° C.; for Ki: read-out: CCK2 pKi (converted).

In the next test the target is T2, CCK-1 receptor (Homo sapiens, UniProt P32238).
T2 construct: expressed in transfected cells; host or cells: CHO-K1
T2 sequence (P32238 1-428): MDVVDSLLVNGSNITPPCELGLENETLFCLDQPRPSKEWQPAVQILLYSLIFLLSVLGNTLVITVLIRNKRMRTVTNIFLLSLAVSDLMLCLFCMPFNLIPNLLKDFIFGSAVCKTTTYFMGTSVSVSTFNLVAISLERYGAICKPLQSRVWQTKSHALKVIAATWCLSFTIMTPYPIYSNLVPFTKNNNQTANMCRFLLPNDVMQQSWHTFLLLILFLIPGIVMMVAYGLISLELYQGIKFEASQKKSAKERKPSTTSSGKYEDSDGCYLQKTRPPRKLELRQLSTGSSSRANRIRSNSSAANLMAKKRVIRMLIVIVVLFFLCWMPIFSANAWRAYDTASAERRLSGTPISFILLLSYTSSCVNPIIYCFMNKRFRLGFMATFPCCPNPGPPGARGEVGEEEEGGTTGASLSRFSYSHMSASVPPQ
Put plainly: CCK1 binding assay ([125I]-BH-CCK-8S displacement, CHO-K1 membranes). As to conditions: membranes of CHO-K1 cells stably transfected with the CCK-1 receptor, 20 pM [125I]-BH-CCK-8S, 0.3 μM PD-134,308 present, 60 min at 21±3° C.; for Ki: read-out: CCK1 pKi (converted). Put shortly: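 Membranes from CHO-K1 cells stably expressing CCK-1 incubated 1 h at 21±3° C with 20 pM [125I]-BH-CCK-8S in HEPES buffer pH 7.2 containing 0.3 μM PD-134,308 to block CCK-2. Bound radioactivity read by gamma counting after filtration. pKi derived via Cheng-Prusoff, with specific binding defined using 2-NAP.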

Consider `O=C(N[C@@H](Cc1cccc(Cl)c1)C(=O)O)c1ccc(Cl)cc1NS(=O)(=O)c1cccc2nccnc12` [Example 78, (S)-3-(3-Chloro-phenyl)-2-[4-chloro-2-(quinoxaline-5-sulfonylamino)-benzoylamino]-propionic acid], for which the Ki was 31.6 nM on CCK2 receptor and 3980 nM at CCK-1 receptor.

`O=C(NCCc1ccc(Br)cc1)c1ccc(Cl)cc1NS(=O)(=O)c1c(F)cccc1F` [Example 80, N-[2-(4-Bromo-phenyl)-ethyl]-4-chloro-2-(2,6-difluoro-benzenesulfonylamino)-benzamide]: the Ki on CCK2 receptor is 1580 nM; at CCK-1 receptor it was 100 nM.

As for `CC(CNC(=O)c1c(Cl)cccc1NS(=O)(=O)c1cccc2nsnc12)c1ccc(Cl)c(Cl)c1` (stereo not shown) [Example 81, 2-(Benzo[1,2,5]thiadiazole-4-sulfonylamino)-6-chloro-N-[2-(3,4-dichloro-phenyl)-propyl]-benzamide], the Ki at CCK2 receptor is 2000 nM; at CCK-1 receptor it was 794 nM.

Turning to `O=C(O)C[C@@H](Cc1ccc(Cl)c(Cl)c1)NC(=O)c1ccc(Cl)cc1NS(=O)(=O)c1cccc2nccnc12` [Example 82, (R)-3-[4-Chloro-2-(quinoxaline-5-sulfonylamino)-benzoylamino]-4-(3,4-dichloro-phenyl)-butyric acid], the Ki at CCK2 receptor was 7940 nM; on CCK-1 receptor it was 794 nM.

Consider `O=C(N[C@@H](Cc1ccc(Cl)cc1)C(=O)O)c1cc(Cl)ccc1NS(=O)(=O)c1cccc2nsnc12` [Example 83, (S)-2-[2-(Benzo[1,2,5]thiadiazole-4-sulfonylamino)-5-chloro-benzoylamino]-3-(4-chloro-phenyl)-propionic acid], for which the Ki at CCK2 receptor was 251 nM; at CCK-1 receptor it was 1580 nM.

As for `COC(=O)C[C@H](Cc1ccc(Cl)cc1)NC(=O)c1ccc(Cl)cc1NS(=O)(=O)c1cccc2nccnc12` [Example 88, (S)-4-(4-Chloro-phenyl)-3-[4-chloro-2-(quinoxaline-5-sulfonylamino)-benzoylamino]-butyric acid methyl ester], the Ki is 631 nM on CCK2 receptor and 6310 nM at CCK-1 receptor.

As to `O=C(O)C[C@H](Cc1ccc(Cl)cc1)NC(=O)c1ccc(Cl)cc1NS(=O)(=O)c1cccc2nccnc12` [Example 89, (S)-4-(4-Chloro-phenyl)-3-[4-chloro-2-(quinoxaline-5-sulfonylamino)-benzoylamino]-butyric acid], the Ki was 63.1 nM at CCK2 receptor and 7940 nM at CCK-1 receptor.

As to `O=C(N[C@@H](Cc1ccc(Cl)cc1)C(=O)O)c1ccc(I)cc1NS(=O)(=O)c1cccc2nccnc12` [Example 90, (S)-3-(4-Chloro-phenyl)-2-[4-iodo-2-(quinoxaline-5-sulfonylamino)-benzoylamino]-propionic acid], the Ki at CCK2 receptor was 31.6 nM; on CCK-1 receptor, 1260 nM.

Consider `O=C(N[C@@H](Cc1ccc(Cl)c(Br)c1)C(=O)O)c1ccc(I)cc1NS(=O)(=O)c1cccc2nsnc12` [Example 91, (S)-2-[2-(Benzo[1,2,5]thiadiazole-4-sulfonylamino)-4-iodo-benzoylamino]-3-(3-bromo-4-chloro-phenyl)-propionic acid], for which the Ki was 15.8 nM on CCK2 receptor and 79.4 nM at CCK-1 receptor.

For `O=C(N[C@@H](Cc1ccc(Cl)c(I)c1)C(=O)O)c1ccc(I)cc1NS(=O)(=O)c1cccc2nsnc12` [Example 92, (S)-2-[2-(Benzo[1,2,5]thiadiazole-4-sulfonylamino)-4-iodo-benzoylamino]-3-(4-chloro-3-iodo-phenyl)-propionic acid], the results for the Ki at CCK2 receptor and at CCK-1 receptor were 31.6 nM and 63.1 nM, respectively.

In the case of `O=C(N[C@@H](Cc1ccc(F)c(Br)c1)C(=O)O)c1ccc(I)cc1NS(=O)(=O)c1cccc2nsnc12` [Example 93, (S)-2-[2-(Benzo[1,2,5]thiadiazole-4-sulfonylamino)-4-iodo-benzoylamino]-3-(3-bromo-4-fluoro-phenyl)-propionic acid], at CCK2 receptor, the “CCK2 pKi” value is 8.3. The “CCK1 pKi” value at CCK-1 receptor stood at 6.8.

For the origin of these results see US7855292B2, “Sulfonamide compounds” (Janssen Pharmaceutica NV, priority 2004, dated 2010).
